Results: the Kinase Knowledgebase extract (Sharma et al. 2016)

Molecular target: MAPK14 (human) (UniProt Q16539)
Experiment: Inhibition of MAPK14 Kinase Activity

Sequence of MAPK14 (human) (Q16539 whole entry, looked up): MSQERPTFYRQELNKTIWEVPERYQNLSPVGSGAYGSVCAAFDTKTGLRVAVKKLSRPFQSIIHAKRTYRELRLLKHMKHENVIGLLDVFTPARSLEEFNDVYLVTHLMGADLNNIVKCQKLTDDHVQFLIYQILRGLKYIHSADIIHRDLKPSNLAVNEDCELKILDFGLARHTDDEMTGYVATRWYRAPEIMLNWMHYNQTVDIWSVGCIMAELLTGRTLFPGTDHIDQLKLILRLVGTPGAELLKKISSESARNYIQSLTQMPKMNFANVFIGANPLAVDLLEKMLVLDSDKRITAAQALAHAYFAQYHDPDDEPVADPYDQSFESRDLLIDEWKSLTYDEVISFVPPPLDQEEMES

IC50, ≤ 10 µM:
O=C1CCC(Cc2ccccc2F)CN1c1c(Cl)csc1Cl (centres undefined), O=C1CCC(Oc2ccc(F)cc2)CN1c1c(Cl)ccnc1Cl (centres undefined), O=C1CCC(Oc2ccccc2)CN1c1c(Cl)ccnc1Cl (centres undefined), Cc1ccc(CC2CNC(=O)N(c3c(Cl)cccc3Cl)C2)cc1 (centres undefined), Nc1ncc(Cl)c(N2CC(Sc3ccc(F)cc3F)CCC2=O)c1Cl (centres undefined), O=C1CCC(Oc2ccc3ccccc3c2)CN1c1c(Cl)cccc1Cl (centres undefined), O=C(Cc1ccccc1)Nc1cc(Cl)c(N2CC(Oc3ccc(F)cc3F)CCC2=O)c(Cl)c1 (centres undefined), Nc1cc(Cl)c(N2CC(Cc3ccc(F)cc3F)CCC2=O)c(Cl)n1 (centres undefined), O=C(Nc1ccc(CC2CCC(=O)N(c3c(Cl)cccc3Cl)C2)cc1)C1CCCCC1 (centres undefined), O=C(CNc1cc(Cl)c(N2CC(Cc3ccc(F)cc3F)CCC2=O)c(Cl)c1)NCCO (centres undefined), Cc1ccc(OC2CCC(=O)N(c3c(Cl)cccc3Cl)C2)cc1 (centres undefined), COc1ccccc1CC1CCC(=O)N(c2c(Cl)ccnc2Cl)C1 (centres undefined), O=C1COC(Cc2ccccc2Cl)CN1c1c(Cl)cccc1Cl (centres undefined), O=C(Cc1ccccc1)Nc1sc(Cl)c(N2CC(Cc3ccc(F)cc3F)CCC2=O)c1Cl (centres undefined), CN1CC(=O)N(c2c(Cl)cccc2Cl)CC1Cc1ccc(F)cc1F (centres undefined), O=C1CCC(C(=NO)c2ccc(F)cc2F)CN1c1c(Cl)cccc1Cl (centres undefined), COc1ccc(CC2CCC(=O)N(c3c(Cl)csc3Cl)C2)cc1 (centres undefined), O=C1CCC(Sc2ccccc2Cl)CN1c1c(Cl)cncc1Cl (centres undefined), CC(=O)NC1CCC(Cl)C(N2CC(Oc3ccc(F)cc3F)CCC2=O)C1Cl (centres undefined), O=C1CCC(Cc2cccc3ccccc23)CN1c1c(Cl)csc1Cl (centres undefined), COc1ccccc1CC1CSC(=O)N(c2c(Cl)cccc2Cl)C1 (centres undefined), O=C1CSC(Cc2ccc(F)cc2F)CN1c1c(Cl)cc(O)cc1Cl (centres undefined), O=C1CCC(Cc2cc(F)cc(F)c2)CN1c1c(Cl)csc1Cl (centres undefined), O=C1CCC(Cc2ccc(F)cc2F)CN1C1C(Cl)CCC(CO)C1Cl (centres undefined), O=C1CCC(Cc2ccc(F)cc2F)CN1c1c(Cl)cc(NC2CCNCC2)cc1Cl (centres undefined), O=C1CCC(Oc2ccc(F)cc2F)CN1c1c(Cl)cc(CO)nc1Cl (centres undefined), COc1ccccc1SC1CCC(=O)N(C2C(Cl)CCCC2Cl)C1 (centres undefined), Cc1ccc2ccccc2c1N1CC(Cc2ccc(F)cc2F)CCC1=O (centres undefined), O=C1CCC(Sc2ccc(F)cc2F)CN1C1C(Cl)CC(CO)CC1Cl (centres undefined), O=C(Cc1ccccc1)Nc1cc(Cl)c(N2CC(Cc3ccc(F)cc3F)CCC2=O)c(Cl)c1 (centres undefined), O=C1CC[C@H](Cc2ccc(F)cc2F)CN1c1c(Cl)cccc1Cl, O=C1SCC(Cc2ccc(Cl)cc2)CN1c1c(Cl)cccc1Cl (centres undefined), Cc1cc(Br)cc(C)c1N1CC(Cc2ccc(F)cc2F)CCC1=O (centres undefined), Cc1cccc(C)c1N1CC(Cc2ccccc2OCC(=O)Nc2cc(C(C)(C)C)nn2C)CCC1=O (centres undefined), O=C1CCC(Oc2ccc(F)cc2F)CN1c1c(Cl)cccc1Cl (centres undefined), CNc1cc(Cl)c(N2CC(Cc3ccc(F)cc3F)CNC2=O)c(Cl)c1 (centres undefined), Cc1ccccc1CC1CN(C)C(=O)N(c2c(Cl)cccc2Cl)C1 (centres undefined), O=C1CCC(Cc2ccc(F)cc2F)CN1c1c(Cl)cc(NCc2ccccc2O)cc1Cl (centres undefined), O=C1CCC(Sc2ccc3ccccc3c2)CN1c1c(Cl)csc1Cl (centres undefined), O=C1CCC(Sc2ccc(F)cc2)CN1C1C(Cl)CCCC1Cl (centres undefined), O=C1CCC(Oc2ccc(F)cc2F)CN1C1C(Cl)CCC(CO)C1Cl (centres undefined), CC(C)(C)OC(=O)Nc1ccc(N2CC(Cc3ccc(F)cc3F)CCC2=O)c(Cl)c1 (centres undefined), CC(=O)Nc1cc(Cl)c(N2CC(Cc3ccc(F)cc3F)OCC2=O)c(Cl)c1 (centres undefined), CC(C)(C)OC(=O)Nc1cc(Cl)c(N2CC(C(O)c3ccc(F)cc3F)CCC2=O)c(Cl)c1 (centres undefined), N[C@@H](Cc1ccc(O)cc1)C(=O)Nc1cc(Cl)c(N2CC(Cc3ccc(F)cc3F)CCC2=O)c(Cl)c1 (some centres undefined), N#C/C=C/c1cc(Cl)c(N2CC(Cc3ccc(F)cc3F)CCC2=O)c(Cl)c1 (centres undefined), CNc1cnc(Cl)c(N2CC(Oc3ccc(F)cc3F)CCC2=O)c1Cl (centres undefined), COC(c1ccc(F)cc1F)C1CCC(=O)N(c2c(Cl)cccc2Cl)C1 (centres undefined), Cc1ccc(CC2CCC(=O)N(C3C(Cl)CCCC3Cl)C2)c(C)c1 (centres undefined), Cn1nc(C(C)(C)C)cc1NC(=O)NCc1ccccc1CC1CCC(=O)N(c2c(Cl)cccc2Cl)C1 (centres undefined), O=C(Cc1ccccc1)Nc1cc(Cl)c(N2CC(Cc3ccc(F)cc3F)OCC2=O)c(Cl)c1 (centres undefined), O=C1CSC(Cc2ccc(F)cc2F)CN1c1c(Cl)cc(CO)cc1Cl (centres undefined), O=C1CCC(Sc2ccc(F)cc2F)CN1C1C(Cl)CCC(CO)C1Cl (centres undefined), Cc1cc(CCCCCO)cc(C)c1N1CC(Cc2ccc(F)cc2F)CCC1=O (centres undefined), O=C1CCC(Oc2ccccc2F)CN1C1C(Cl)CCCC1Cl (centres undefined), Cc1cccc(C)c1N1C[C@H](Cc2ccc(F)cc2F)C[C@H](C)C1=O, COC(=O)/C=C/c1cc(Cl)c(N2CC(Cc3ccc(F)cc3F)CCC2=O)c(Cl)c1 (centres undefined), CC(C)(C)C(=O)Nc1cc(Cl)c(N2CC(Cc3ccc(F)cc3F)CCC2=O)c(Cl)c1 (centres undefined), O=C1CCC(Cc2ccc(Cl)cc2Cl)CN1c1c(Cl)cncc1Cl (centres undefined), CC(=O)Nc1ccc(Cl)c(N2CC(Cc3ccc(F)cc3F)CCC2=O)c1Cl (centres undefined), O=C1CSC(Cc2ccccc2Cl)CN1c1c(Cl)cccc1Cl (centres undefined), O=C1CCC(Cc2cccc3ccccc23)CN1c1c(Cl)cccc1Cl (centres undefined), CN(C(=O)Cc1ccccc1)c1cc(Cl)c(N2CC(Cc3ccc(F)cc3F)CCC2=O)c(Cl)c1 (centres undefined), COc1ccccc1CC1CN(C)C(=O)N(c2c(Cl)cccc2Cl)C1 (centres undefined), CC(C)(C)OC(=O)N[C@@H](CO)C(=O)Nc1cc(Cl)c(N2CC(Cc3ccc(F)cc3F)CCC2=O)c(Cl)c1 (some centres undefined), COc1ccc(CC2CN(C)C(=O)N(c3c(Cl)cccc3Cl)C2)cc1 (centres undefined), O=C1CCC(Oc2cc(Cl)cc(Cl)c2)CN1c1c(Cl)cccc1Cl (centres undefined), NC(=O)C[C@H](N)C(=O)Nc1cc(Cl)c(N2CC(Cc3ccc(F)cc3F)CCC2=O)c(Cl)c1 (some centres undefined), O=C1CCC(Oc2ccccc2)CN1c1c(Cl)csc1Cl (centres undefined)
